Nine compounds from PubChem BioAssay (NCI) can be followed below.

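In this assay, cells in 96-well plates receive the compound at five concentrations for 48 hours. Endpoints are linearly interpolated between the surrounding concentrations. GI50 marks 50% less growth. TGI denotes the concentration required for complete inhibition of growth.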 Where only a bound is given, the exact number is not on record here.

What all share (experiment): NCI anticancer screen, dose series, 48 h
In experiment [1] the test system is SW-620 colon.
In experiment [2] the test system is LOX IMVI melanoma.
The subject of experiment [3] is BT-549 breast.
The subject of experiment [4] is 786-0 renal.
For experiment [5], the system named is HT29 colon.
Experiment [6] concerns U251 CNS.
The test system of experiment [7] is ACHN renal.
The test system of experiment [8] is CCRF-CEM leukemia.
Experiment [9] relates to PC-3 prostate.
Experiment [10] deals with HOP-92 NSCLC.

`O=c1oc2c(cc1-c1ccccc1)C(O)Oc1ccccc1-2` (configuration not stated): the GI50 in [1] was 4.37 µM; in experiment [2], 13 µM; in experiment [3] it was 17.4 µM; in experiment [4], 11.6 µM; in experiment [5], 3.21 µM; in experiment [6], 7.92 µM. Moreover, in [7], the GI50 was 20.4 µM. The TGI in experiment [1], in [2], in experiment [3], in experiment [4], in [5] and in experiment [6] was above 100 µM in each case. In [7], this compound returned a TGI above 100 µM.
With `CN(N=O)C(=O)Nc1ccc(C(=O)O)cc1`, the TGI in experiment [8], in experiment [1], in experiment [9], in [2], in experiment [3] and in experiment [4] was above 100 µM throughout. Besides, the TGI in [5], in experiment [10], in experiment [6] and in experiment [7] was above 100 µM throughout.
For the compound `CNC1=CC(=O)C2=C(C1=O)C1C3=C(C(=O)C(Br)=C(OC)C3=O)C2c2ccccc21` (configuration not stated), the GI50 was 2.88 µM in experiment [1]; 1.08 µM in experiment [9]; 1.6 µM in experiment [3]; 1.38 µM in experiment [4]; 2.71 µM in experiment [5]; 1.24 µM in [10]. The GI50 is 1.41 µM in experiment [6] and 1.74 µM in experiment [7]. Moreover, the TGI in experiment [1] is above 50 µM; in [9], 2.75 µM; in experiment [3], 5.3 µM; in experiment [4], 3.5 µM; in experiment [5] it was above 50 µM; in [10], 2.97 µM. For the same compound, the TGI in experiment [6] came out at 4.26 µM; in [7], 6.21 µM.
Consider `OCC#CCCCCOCC#Cc1ccccc1C#CCOCCCCC#CCO`, for which the GI50 in experiment [1] is 21.9 µM; in [9], 40.6 µM; in experiment [2] it was 12.5 µM; in experiment [3] it was 16.8 µM; in [4], 36.9 µM; in experiment [5] it was 21.2 µM. In addition, the GI50 is 28.8 µM in [10], 17.2 µM in [6] and 21.7 µM in experiment [7]. In addition, the TGI was 50.9 µM in experiment [1]; 98.4 µM in experiment [9]; 27.3 µM in experiment [2]; 41.2 µM in [3]; above 100 µM in experiment [4]; 63.6 µM in [5]. In addition, the TGI in [10] was 62 µM; in experiment [6] it was 35.2 µM; in experiment [7], 58.7 µM.
In the case of `CNC(C)[C@H]1CCC2C3CCC4C[C@@H](N(C)C(=O)c5ccccc5)CC[C@]4(C)C3CC[C@@]21C` (some centres not stated), the GI50 in [8] was 0.763 µM; in experiment [1] it was 0.854 µM; in experiment [9], 0.969 µM; in experiment [2], 0.419 µM; in [3], 2.26 µM; in [4], 1.3 µM. The GI50 was 0.291 µM in [5], 0.384 µM in experiment [10], 1.25 µM in experiment [6] and 2.37 µM in experiment [7]. Further, the TGI was 3.4 µM in [8]; 2.9 µM in [1]; 3.52 µM in experiment [9]; 1.8 µM in experiment [2]; 8.35 µM in experiment [3]; 2.82 µM in [4]. Moreover, the TGI in [5] is 1.23 µM; in experiment [10], 3.52 µM; in [6], 5.4 µM; in experiment [7], 9.59 µM.
On to `Oc1c(Cl)cc(CN(Cc2cc(Cl)c(O)c(Cl)c2)C2CCCCC2)cc1Cl`, for which the TGI in [1], in experiment [9], in [2], in experiment [3], in experiment [4] and in experiment [5] was above 100 µM each time. Besides, the TGI in experiment [10], in experiment [6] and in experiment [7] was above 100 µM in each case.
In the case of `Oc1cc2c(cc1C(c1ccc3c(c1)OCO3)N1CCN(C(c3ccc4c(c3)OCO4)c3cc4c(cc3O)OCO4)CC1)OCO2` (configuration not stated), the TGI was 25.3 µM in [1]; above 100 µM in [9]; 18.7 µM in [2]; 45.1 µM in experiment [3]; 25.8 µM in [4]; 18.8 µM in experiment [5]. Also, the values for the TGI in [10], in experiment [6] and in experiment [7] were 78.3 µM, 28.7 µM and 26.6 µM, respectively.
On to `Cc1cc(S(=O)(=O)Nc2nc3ccccc3[nH]2)c(SCc2ccccc2)cc1Cl`, for which the GI50 was 12.3 µM in [8]; above 100 µM in experiment [1]; above 100 µM in experiment [9]; 28.4 µM in experiment [2]; above 100 µM in experiment [3]; 62.9 µM in experiment [4]. Further, the GI50 in [10] was 62.2 µM; in experiment [6], 14.9 µM; in experiment [7] it was 32.8 µM. For the same compound, the TGI in experiment [8] was 24.8 µM; in experiment [1], above 100 µM; in experiment [9], above 100 µM; in experiment [2], above 100 µM; in experiment [3], above 100 µM; in experiment [4], above 100 µM. For the same compound, the figures for the TGI in [10], in experiment [6] and in [7] were above 100 µM, 50.7 µM and above 100 µM, respectively.
Take `Cc1ccc(S(=O)(=O)N[C@@H](Cc2ccccc2)C(=O)CCl)cc1`: the GI50 was 10.2 µM in experiment [1]; 5.54 µM in experiment [9]; 2.31 µM in experiment [2]; 6.64 µM in [3]; 10.6 µM in experiment [4]; 24 µM in experiment [5]. Also, the GI50 is 2.19 µM in experiment [10], 9.3 µM in experiment [6] and 13 µM in [7]. Besides, the TGI in experiment [1] is 59.4 µM; in experiment [9] it was 22.6 µM; in [2] it was 10.4 µM; in experiment [3], 24 µM; in experiment [4] it was 27 µM; in [5] it was above 100 µM. Besides, the TGI was found to be 12 µM in experiment [10], 24.5 µM in experiment [6] and 28.1 µM in experiment [7].
